According to ChEMBL document CHEMBL3885861, “Open TG-GATES”:

Species on record: Rattus norvegicus
Assay: Open TG-GATES - Regimen: Daily Repeat
Type: toxicity, organism-based, Sprague-Dawley
Parameters: regimen Daily Repeat, gender Male, age 6 weeks
Details: in vivo, po, 0 mg/kg, route gavage, dose level Control; for APTT / Bas / Eos / Fbg / Hb / Ht / Lym / MCH / MCHC / MCV / Mono / Neu / PT / Plat / RBC / Ret / WBC: tissue Blood; for KIDNEY_L / KIDNEY_R / KIDNEY_TOTAL: tissue Kidney; for LIVER: tissue Liver; for A/G / ALP / ALT / AST / BUN / CRE / Ca / Cl / DBIL / GLC / IP / K / LDH / Na / PL / RALB / TBIL / TC / TG / TP / gamma-GTP: tissue Plasma

SMILES: Clc1c(Cl)c(Cl)c(Cl)c(Cl)c1Cl [PERCHLOROBENZENE]
- TERMINAL_BW (72 h, time 3 day): 224.3 g
- APTT (72 h, time 3 day): 16.2 s
- Bas (72 h, time 3 day): 0%
- Eos (72 h, time 3 day): 1.2%
- Fbg (72 h, time 3 day): 217.4 mg/dL
- Hb (72 h, time 3 day): 13.7 g/dL
- Ht (72 h, time 3 day): 40.9%
- Lym (72 h, time 3 day): 77%
- MCH (72 h, time 3 day): 22 pg
- MCHC (72 h, time 3 day): 33.5%
- MCV (72 h, time 3 day): 65.6 fL
- Mono (72 h, time 3 day): 8%
- Neu (72 h, time 3 day): 13.8%
- PT (72 h, time 3 day): 11.8 s
- Plat (72 h, time 3 day): 98.6 x10_4/uL
- RBC (72 h, time 3 day): 623.2 x10_4/ul
- Ret (72 h, time 3 day): 8.6%
- WBC (72 h, time 3 day): 102.9 x10_2/uL
- KIDNEY_L (72 h, time 3 day): 1.1 g
- KIDNEY_R (72 h, time 3 day): 1.1 g
- KIDNEY_TOTAL (72 h, time 3 day): 2.2 g
- LIVER (72 h, time 3 day): 11.5 g
- A/G (72 h, time 3 day): 2.1
- ALP (72 h, time 3 day): 882.4 IU/L
- ALT (72 h, time 3 day): 40.2 IU/L
- AST (72 h, time 3 day): 59 IU/L
- BUN (72 h, time 3 day): 16.2 mg/dL
- CRE (72 h, time 3 day): 0.5 mg/dL
- Ca (72 h, time 3 day): 10.5 mg/dL
- Cl (72 h, time 3 day): 105.2 meq/L
- DBIL (72 h, time 3 day): 0.038 mg/dL
- GLC (72 h, time 3 day): 193.4 mg/dL
- IP (72 h, time 3 day): 8.5 mg/dL
- K (72 h, time 3 day): 5.4 meq/L
- LDH (72 h, time 3 day): 85.8 IU/L
- Na (72 h, time 3 day): 138.6 meq/L
- PL (72 h, time 3 day): 135 mg/dL
- RALB (72 h, time 3 day): 3.9 g/dL
- TBIL (72 h, time 3 day): 0.3 mg/dL
- TC (72 h, time 3 day): 73 mg/dL
- TG (72 h, time 3 day): 68.8 mg/dL
- TP (72 h, time 3 day): 5.8 g/dL
- gamma-GTP (72 h, time 3 day): 1.4 IU/L
- TERMINAL_BW ([…], time 7 day): 255.4 g
- TERMINAL_BW ([…], time 14 day): 321.1 g
- TERMINAL_BW ([…], time 28 day): 417.1 g
- APTT ([…], time 7 day): 15.8 s
- Bas ([…], time 7 day): 0%
- Eos ([…], time 7 day): 1.2%
- Fbg ([…], time 7 day): 222.8 mg/dL
- Hb ([…], time 7 day): 14.2 g/dL
- Ht ([…], time 7 day): 42.4%
- Lym ([…], time 7 day): 76.6%
- MCH ([…], time 7 day): 21.8 pg
- MCHC ([…], time 7 day): 33.4%
- MCV ([…], time 7 day): 65.2 fL
- Mono ([…], time 7 day): 7.2%
- Neu ([…], time 7 day): 14.8%
- PT ([…], time 7 day): 12 s
- Plat ([…], time 7 day): 96.5 x10_4/uL
- RBC ([…], time 7 day): 651.2 x10_4/ul
- Ret ([…], time 7 day): 5.9%
- WBC ([…], time 7 day): 105.4 x10_2/uL
- APTT ([…], time 14 day): 16 s
- Bas ([…], time 14 day): 0%
- Eos ([…], time 14 day): 1%
- Fbg ([…], time 14 day): 237.6 mg/dL
- Hb ([…], time 14 day): 14.4 g/dL
- Ht ([…], time 14 day): 43%
- Lym ([…], time 14 day): 78.8%
- MCH ([…], time 14 day): 21.2 pg
- MCHC ([…], time 14 day): 33.5%
- MCV ([…], time 14 day): 63.2 fL
- Mono ([…], time 14 day): 6.4%
- Neu ([…], time 14 day): 13.8%
- PT ([…], time 14 day): 11.9 s
- Plat ([…], time 14 day): 106.8 x10_4/uL
- RBC ([…], time 14 day): 681.2 x10_4/ul
- Ret ([…], time 14 day): 5.2%
- WBC ([…], time 14 day): 160.8 x10_2/uL
- APTT ([…], time 28 day): 16.5 s
- Bas ([…], time 28 day): 0%
- Eos ([…], time 28 day): 1.2%
- Fbg ([…], time 28 day): 221 mg/dL
- Hb ([…], time 28 day): 15.2 g/dL
- Ht ([…], time 28 day): 45.9%
- Lym ([…], time 28 day): 83.4%
- MCH ([…], time 28 day): 19.3 pg
- MCHC ([…], time 28 day): 33.1%
- MCV ([…], time 28 day): 58.5 fL
- Mono ([…], time 28 day): 4.8%
- Neu ([…], time 28 day): 10.8%
- PT ([…], time 28 day): 11.7 s
- Plat ([…], time 28 day): 97.1 x10_4/uL
- RBC ([…], time 28 day): 783.8 x10_4/ul
- Ret ([…], time 28 day): 2.5%
- WBC ([…], time 28 day): 133.5 x10_2/uL
- KIDNEY_L ([…], time 7 day): 1.1 g
- KIDNEY_R ([…], time 7 day): 1.2 g
- KIDNEY_TOTAL ([…], time 7 day): 2.3 g
- KIDNEY_L ([…], time 14 day): 1.3 g
- KIDNEY_R ([…], time 14 day): 1.3 g
- KIDNEY_TOTAL ([…], time 14 day): 2.6 g
- KIDNEY_L ([…], time 28 day): 1.4 g
- KIDNEY_R ([…], time 28 day): 1.5 g
- KIDNEY_TOTAL ([…], time 28 day): 2.9 g
- LIVER ([…], time 7 day): 12.9 g
- LIVER ([…], time 14 day): 15.7 g
- LIVER ([…], time 28 day): 18.2 g
- A/G ([…], time 7 day): 2
- ALP ([…], time 7 day): 912 IU/L
- ALT ([…], time 7 day): 33.4 IU/L
- AST ([…], time 7 day): 58.6 IU/L
- BUN ([…], time 7 day): 19.2 mg/dL
- CRE ([…], time 7 day): 0.6 mg/dL
- Ca ([…], time 7 day): 10.3 mg/dL
- Cl ([…], time 7 day): 105.2 meq/L
- DBIL ([…], time 7 day): 0.024 mg/dL
- GLC ([…], time 7 day): 193.6 mg/dL
- IP ([…], time 7 day): 7.7 mg/dL
- K ([…], time 7 day): 4.8 meq/L
- LDH ([…], time 7 day): 95.8 IU/L
- Na ([…], time 7 day): 137.4 meq/L
- PL ([…], time 7 day): 148.6 mg/dL
- RALB ([…], time 7 day): 4 g/dL
- TBIL ([…], time 7 day): 0.4 mg/dL
- TC ([…], time 7 day): 78.2 mg/dL
- TG ([…], time 7 day): 94.6 mg/dL
- TP ([…], time 7 day): 5.9 g/dL
- gamma-GTP ([…], time 7 day): 1 IU/L
- A/G ([…], time 14 day): 1.8
- ALP ([…], time 14 day): 615.2 IU/L
- ALT ([…], time 14 day): 31.2 IU/L
- AST ([…], time 14 day): 58.2 IU/L
- BUN ([…], time 14 day): 18.6 mg/dL
- CRE ([…], time 14 day): 0.6 mg/dL
- Ca ([…], time 14 day): 10.2 mg/dL
- Cl ([…], time 14 day): 105.6 meq/L
- DBIL ([…], time 14 day): 0.004 mg/dL
- GLC ([…], time 14 day): 189 mg/dL
- IP ([…], time 14 day): 7.6 mg/dL
- K ([…], time 14 day): 4.9 meq/L
- LDH ([…], time 14 day): 98 IU/L
- Na ([…], time 14 day): 138.4 meq/L
- PL ([…], time 14 day): 155.6 mg/dL
- RALB ([…], time 14 day): 4 g/dL
- TBIL ([…], time 14 day): 0.3 mg/dL
- TC ([…], time 14 day): 79 mg/dL
- TG ([…], time 14 day): 136.4 mg/dL
- TP ([…], time 14 day): 6.2 g/dL
- gamma-GTP ([…], time 14 day): 1.2 IU/L
- A/G ([…], time 28 day): 1.8
- ALP ([…], time 28 day): 643.6 IU/L
- ALT ([…], time 28 day): 32.6 IU/L
- AST ([…], time 28 day): 54.2 IU/L
- BUN ([…], time 28 day): 18.6 mg/dL
- CRE ([…], time 28 day): 0.7 mg/dL
- Ca ([…], time 28 day): 10.6 mg/dL
- Cl ([…], time 28 day): 105.4 meq/L
- DBIL ([…], time 28 day): 0.014 mg/dL
- GLC ([…], time 28 day): 193 mg/dL
- IP ([…], time 28 day): 7.5 mg/dL
- K ([…], time 28 day): 4.3 meq/L
- LDH ([…], time 28 day): 102 IU/L
- Na ([…], time 28 day): 140 meq/L
- PL ([…], time 28 day): 160.4 mg/dL
- RALB ([…], time 28 day): 4.2 g/dL
- TBIL ([…], time 28 day): 0.3 mg/dL
- TC ([…], time 28 day): 77 mg/dL
- TG ([…], time 28 day): 140.6 mg/dL
- TP ([…], time 28 day): 6.5 g/dL
- gamma-GTP ([…], time 28 day): 1 IU/L
